These results are taken from patent US20080021026A1, “BENZOTHIOPHENE INHIBITORS OF RHO KINASE” (priority 2006, published 2008).

The target of experiment [1] is T1, recombinant N-terminal GST-tagged human Rho kinase 1 (ROCK1, amino acids 1-535) (Homo sapiens, UniProt Q13464).
T1 construct: ROCK1, amino acids 1-535; purchased Invitrogen Inc. PV-3691
Nature of the experiment: In vitro Rho kinase assay (luciferase-based ATP consumption), ROCK1. Type of experiment: biochemical. In a few lines: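 GST-ROCK1 (aa 1-535) at 0.82 μg/ml with 100 μg/ml S6 peptide and 3 µM ATP in Tris pH 7.5 buffer with MgCl2, CaCl2, EGTA, BSA; compound added after reaction start, 2 h at 30 °C. Remaining ATP read by luciferase luminescence; efficacy as percent of H-1152P positive control.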

In experiment [2] the target is T2, recombinant N-terminal GST-tagged human Rho kinase 2 (ROCK2, amino acids 1-552) (Homo sapiens, UniProt O75116).
T2 construct: ROCK2, amino acids 1-552; purchased Invitrogen Inc. PV3759
Description: In vitro Rho kinase assay (luciferase-based ATP consumption), ROCK2. It is filed as biochemical. In a few lines:
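GST-ROCK2 (aa 1-552, 0.82 μg/ml) with 100 μg/ml S6 peptide and 3 µM ATP in Tris pH 7.5 buffer with MgCl2/CaCl2/EGTA/BSA, compound added just after reaction start, 2 h at 30 °C. Remaining ATP read by luciferase luminescence. Efficacy expressed as percentage of H-1152P positive control.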

[3] abbreviates: recombinant GST-tagged human ROCK1, luciferase-based ATP consumption, read-out: ROCK1 IC50.
The mark [4] stands for this setting: recombinant GST-tagged human ROCK2, luciferase-based ATP consumption, read-out: ROCK2 IC50.
The mark [5] stands for this setting: ROCK1 IC50, recombinant GST-tagged human ROCK1, luciferase-based ATP consumption.
The mark [6] stands for this setting: ROCK2 IC50, recombinant GST-tagged human ROCK2, luciferase-based ATP consumption.

Where two headings read alike, the source gives them in different places. A value given as a limit tells only on which side of the number the result lay.

T1 sequence (Q13464 1-535): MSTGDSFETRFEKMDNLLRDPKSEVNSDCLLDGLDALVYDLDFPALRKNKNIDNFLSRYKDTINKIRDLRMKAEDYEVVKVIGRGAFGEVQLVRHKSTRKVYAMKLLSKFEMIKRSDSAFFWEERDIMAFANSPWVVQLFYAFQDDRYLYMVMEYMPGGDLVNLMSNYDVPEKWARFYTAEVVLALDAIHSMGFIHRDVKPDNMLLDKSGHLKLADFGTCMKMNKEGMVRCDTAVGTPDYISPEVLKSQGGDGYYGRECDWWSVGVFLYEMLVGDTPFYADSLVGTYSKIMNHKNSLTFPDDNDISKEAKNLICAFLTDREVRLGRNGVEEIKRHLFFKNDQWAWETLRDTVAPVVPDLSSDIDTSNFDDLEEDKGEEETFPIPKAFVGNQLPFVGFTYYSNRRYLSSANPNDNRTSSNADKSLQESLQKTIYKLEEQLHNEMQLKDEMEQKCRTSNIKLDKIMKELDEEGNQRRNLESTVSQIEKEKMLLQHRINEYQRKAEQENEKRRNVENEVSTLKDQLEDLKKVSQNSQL
T2 sequence (O75116 1-552): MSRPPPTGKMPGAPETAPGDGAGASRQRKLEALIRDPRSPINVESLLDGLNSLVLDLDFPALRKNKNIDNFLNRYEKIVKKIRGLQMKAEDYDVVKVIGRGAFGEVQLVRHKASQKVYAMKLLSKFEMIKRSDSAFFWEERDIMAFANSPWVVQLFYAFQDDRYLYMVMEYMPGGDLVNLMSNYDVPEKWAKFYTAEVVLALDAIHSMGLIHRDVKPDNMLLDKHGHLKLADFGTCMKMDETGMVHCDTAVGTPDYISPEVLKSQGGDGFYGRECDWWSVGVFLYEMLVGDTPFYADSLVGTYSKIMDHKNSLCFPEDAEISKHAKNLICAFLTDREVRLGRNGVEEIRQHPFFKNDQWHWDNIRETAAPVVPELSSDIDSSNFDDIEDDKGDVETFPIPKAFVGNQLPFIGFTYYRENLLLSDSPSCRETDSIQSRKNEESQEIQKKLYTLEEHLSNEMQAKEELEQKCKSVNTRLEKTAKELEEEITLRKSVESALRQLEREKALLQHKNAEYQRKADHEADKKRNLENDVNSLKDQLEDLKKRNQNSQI

A word on the IC50: it is the concentration needed to halve the response being measured. As for `Cc1c(-c2ccnc(N)n2)sc2ccc(CNC(=O)c3cnc(O)c(Cl)c3)cc12` [Example 193, Cc1c(sc2ccc(CNC(═O)c3cnc(O)c(Cl)c3)cc12)-c4ccnc(N)n4], the IC50 in experiment [1] (setting [3]) was < 5 µM; in experiment [2] (setting [4]), > 5 µM.

On to `Cc1c(-c2ccnc(N)n2)sc2ccc(CNC(=O)c3ccc(F)cc3Cl)cc12` [Example 194, Cc1c(sc2ccc(CNC(═O)c3ccc(F)cc3Cl)cc12)-c4ccnc(N)n4], for which the half-maximal inhibitory concentration (IC50) in experiment [1] (setting [5]) is > 5 µM; in experiment [2] (setting [6]) it was < 5 µM.

Take `Cc1c(-c2ccnc(N)n2)sc2ccc(CNC(=O)c3c(F)cccc3Cl)cc12` [Example 195, Cc1c(sc2ccc(CNC(═O)c3c(F)cccc3Cl)cc12)-c4ccnc(N)n4]: the IC50 in experiment [1] (setting [5]) and in experiment [2] (setting [6]) was < 5 µM throughout.

Take `Cc1c(-c2ccnc(N)n2)sc2ccc(CNC(=O)CNC(=O)OC(C)(C)C)cc12` [Example 196, Cc1c(sc2ccc(CNC(═O)CNC(═O)OC(C)(C)C)cc12)-c3ccnc(N)n3]: the IC50 in experiment [1] (setting [3]) and in experiment [2] (setting [4]) was < 5 µM each time.

With `Cc1c(C(=O)NCc2ccc3sc(-c4ccnc(N)n4)c(C)c3c2)oc2ccccc12` [Example 197, Cc1c(oc2ccccc12)C(═O)NCc3ccc4sc(c(C)c4c3)-c5ccnc(N)n5], the 50% inhibitory concentration (IC50) in experiment [1] (setting [3]) was < 5 µM; in experiment [2] (setting [4]), > 5 µM.

As to `Cc1c(-c2ccnc(N)n2)sc2ccc(CNC(=O)CC3Cc4ccccc4C3)cc12` [Example 198, Cc1c(sc2ccc(CNC(═O)CC3Cc4ccccc4C3)cc12)-c5ccnc(N)n5], the IC50 in experiment [1] (setting [3]) was > 5 µM; in experiment [2] (setting [4]), < 5 µM.

As to `Cc1c(-c2ccnc(N)n2)sc2ccc(CNC(=O)C3CCc4ccccc4C3)cc12` (stereo not shown) [Example 199, Cc1c(sc2ccc(CNC(═O)C3CCc4ccccc4C3)cc12)-c5ccnc(N)n5], the half-inhibitory concentration (IC50) was > 5 µM in experiment [1] (setting [3]) and < 5 µM in experiment [2] (setting [4]).

`COc1ccccc1C=CC(=O)NCc1ccc2sc(-c3ccnc(N)n3)c(C)c2c1` [Example 200, COc1ccccc1C═CC(═O)NCc2ccc3sc(c(C)c3c2)-c4ccnc(N)n4]: the IC50 in experiment [1] (setting [3]) and in experiment [2] (setting [4]) was < 5 µM in each case.

Regarding `Cc1c(-c2ccnc(N)n2)sc2ccc(CNC(=O)c3csc4ccccc34)cc12` [Example 201, Cc1c(sc2ccc(CNC(═O)c3csc4ccccc34)cc12)-c5ccnc(N)n5], the IC50 is > 5 µM in experiment [1] (setting [3]) and < 5 µM in experiment [2] (setting [4]).

On to `Cc1c(-c2ccnc(N)n2)sc2ccc(CNC(=O)c3cc4ccccc4s3)cc12` [Example 202, Cc1c(sc2ccc(CNC(═O)c3cc4ccccc4s3)cc12)-c5ccnc(N)n5], for which the IC50 in experiment [1] (setting [3]) and in experiment [2] (setting [4]) was < 5 µM each time.

With `CCCCc1ccc(C(=O)NCc2ccc3sc(-c4ccnc(N)n4)c(C)c3c2)cc1` [Example 203, CCCCc1ccc(cc1)C(═O)NCc2ccc3sc(c(C)c3c2)-c4ccnc(N)n4], the IC50 in experiment [1] (setting [3]) and in experiment [2] (setting [4]) was > 5 µM in each case.

For the compound `Cc1c(-c2ccnc(N)n2)sc2ccc(CNC(=O)c3ccc(C(C)(C)C)cc3)cc12` [Example 204, Cc1c(sc2ccc(CNC(═O)c3ccc(cc3)C(C)(C)C)cc12)-c4ccnc(N)n4], the IC50 in experiment [1] (setting [3]) and in experiment [2] (setting [4]) was < 5 µM in each case.

Regarding `Cc1c(-c2ccnc(N)n2)sc2ccc(CNC(=O)c3ccc(N(C)C=O)cc3)cc12` [Example 205, CN(C═O)c1ccc(cc1)C(═O)NCc2ccc3sc(c(C)c3c2)-c4ccnc(N)n4], the 50% inhibitory concentration (IC50) in experiment [1] (setting [3]) and in experiment [2] (setting [4]) was < 5 µM throughout.

`CC(=O)Nc1cccc(C(=O)NCc2ccc3sc(-c4ccnc(N)n4)c(C)c3c2)c1` [Example 206, CC(═O)Nc1cccc(c1)C(═O)NCc2ccc3sc(c(C)c3c2)-c4ccnc(N)n4]: the IC50 in experiment [1] (setting [3]) and in experiment [2] (setting [4]) was < 5 µM each time.

With `Cc1c(-c2ccnc(N)n2)sc2ccc(CNC(=O)COc3ccccc3C=O)cc12` [Example 207, Cc1c(sc2ccc(CNC(═O)COc3ccccc3C═O)cc12)-c4ccnc(N)n4], the 50% inhibitory concentration (IC50) in experiment [1] (setting [3]) and in experiment [2] (setting [4]) was < 5 µM in each case.

For `CC(=O)Oc1ccc(C(=O)NCc2ccc3sc(-c4ccnc(N)n4)c(C)c3c2)cc1` [Example 208, CC(═O)Oc1ccc(cc1)C(═O)NCc2ccc3sc(c(C)c3c2)-c4ccnc(N)n4], the 50% inhibitory concentration (IC50) in experiment [1] (setting [3]) and in experiment [2] (setting [4]) was < 5 µM in each case.

With `COC(=O)c1ccc(C(=O)NCc2ccc3sc(-c4ccnc(N)n4)c(C)c3c2)cc1` [Example 209, COC(═O)c1ccc(cc1)C(═O)NCc2ccc3sc(c(C)c3c2)-c4ccnc(N)n4], the 50% inhibitory concentration (IC50) in experiment [1] (setting [3]) and in experiment [2] (setting [4]) was < 5 µM in each case.

Consider `CC(=O)Oc1cccc(C(=O)NCc2ccc3sc(-c4ccnc(N)n4)c(C)c3c2)c1` [Example 210, CC(═O)Oc1cccc(c1)C(═O)NCc2ccc3sc(c(C)c3c2)-c4ccnc(N)n4], for which the 50% inhibitory concentration (IC50) in experiment [1] (setting [3]) and in experiment [2] (setting [4]) was < 5 µM throughout.

Take `CC(=O)Oc1ccccc1C(=O)NCc1ccc2sc(-c3ccnc(N)n3)c(C)c2c1` [Example 211, CC(═O)Oc1ccccc1C(═O)NCc2ccc3sc(c(C)c3c2)-c4ccnc(N)n4]: the 50% inhibitory concentration (IC50) in experiment [1] (setting [3]) and in experiment [2] (setting [4]) was < 5 µM in each case.

As to `Cc1c(-c2ccnc(N)n2)sc2ccc(CNC(=O)Cc3ccc4c(c3)OCO4)cc12` [Example 212, Cc1c(sc2ccc(CNC(═O)Cc3ccc4OCOc4c3)cc12)-c5ccnc(N)n5], the IC50 in experiment [1] (setting [3]) and in experiment [2] (setting [4]) was < 5 µM in each case.

For the compound `CCCOc1ccc(C(=O)NCc2ccc3sc(-c4ccnc(N)n4)c(C)c3c2)cc1` [Example 213, CCCOc1ccc(cc1)C(═O)NCc2ccc3sc(c(C)c3c2)-c4ccnc(N)n4], the IC50 in experiment [1] (setting [3]) was < 5 µM; in experiment [2] (setting [4]), > 5 µM.

On to `Cc1c(-c2ccnc(N)n2)sc2ccc(CNC(=O)c3ccc(OC(C)C)cc3)cc12` [Example 214, CC(C)Oc1ccc(cc1)C(═O)NCc2ccc3sc(c(C)c3c2)-c4ccnc(N)n4], for which the IC50 in experiment [1] (setting [3]) and in experiment [2] (setting [4]) was > 5 µM in each case.

With `Cc1cccc([N+](=O)[O-])c1C(=O)NCc1ccc2sc(-c3ccnc(N)n3)c(C)c2c1` [Example 215, Cc1cccc(c1C(═O)NCc2ccc3sc(c(C)c3c2)-c4ccnc(N)n4)[N+]([O−])═O], the half-inhibitory concentration (IC50) in experiment [1] (setting [3]) is > 5 µM; in experiment [2] (setting [4]), < 5 µM.

Turning to `Cc1cccc(C(=O)NCc2ccc3sc(-c4ccnc(N)n4)c(C)c3c2)c1[N+](=O)[O-]` [Example 216, Cc1cccc(C(═O)NCc2ccc3sc(c(C)c3c2)-c4ccnc(N)n4)c1[N+]([O−])═O], the IC50 in experiment [1] (setting [3]) was > 5 µM; in experiment [2] (setting [4]), < 5 µM.

As for `Cc1ccc([N+](=O)[O-])c(C(=O)NCc2ccc3sc(-c4ccnc(N)n4)c(C)c3c2)c1` [Example 217, Cc1ccc(c(c1)C(═O)NCc2ccc3sc(c(C)c3c2)-c4ccnc(N)n4)[N+]([O−])═O], the IC50 is > 5 µM in experiment [1] (setting [3]) and < 5 µM in experiment [2] (setting [4]).

As to `Cc1c(C(=O)NCc2ccc3sc(-c4ccnc(N)n4)c(C)c3c2)cccc1[N+](=O)[O-]` [Example 218, Cc1c(cccc1[N+]([O−])═O)C(═O)NCc2ccc3sc(c(C)c3c2)-c4ccnc(N)n4], the IC50 in experiment [1] (setting [3]) was > 5 µM; in experiment [2] (setting [4]), < 5 µM.

Turning to `COc1ccc(C(=O)NCc2ccc3sc(-c4ccnc(N)n4)c(C)c3c2)c(OC)c1` [Example 219, COc1ccc(C(═O)NCc2ccc3sc(c(C)c3c2)-c4ccnc(N)n4)c(OC)c1], the IC50 in experiment [1] (setting [3]) is > 5 µM; in experiment [2] (setting [4]) it was < 5 µM.

Consider `COc1cccc(OC)c1C(=O)NCc1ccc2sc(-c3ccnc(N)n3)c(C)c2c1` [Example 220, COc1cccc(OC)c1C(═O)NCc2ccc3sc(c(C)c3c2)-c4ccnc(N)n4], for which the results for the concentration for half-maximal inhibition (IC50) in experiment [1] (setting [3]) and in experiment [2] (setting [4]) were > 5 µM and < 5 µM, respectively.

On to `COc1cc(OC)cc(C(=O)NCc2ccc3sc(-c4ccnc(N)n4)c(C)c3c2)c1` [Example 221, COc1cc(OC)cc(c1)C(═O)NCc2ccc3sc(c(C)c3c2)-c4ccnc(N)n4], for which the 50% inhibitory concentration (IC50) in experiment [1] (setting [3]) is > 5 µM; in experiment [2] (setting [4]), < 5 µM.

Take `COc1cccc(C(=O)NCc2ccc3sc(-c4ccnc(N)n4)c(C)c3c2)c1OC` [Example 222, COc1cccc(C(═O)NCc2ccc3sc(c(C)c3c2)-c4ccnc(N)n4)c1OC]: the IC50 in experiment [1] (setting [3]) is > 5 µM; in experiment [2] (setting [4]) it was < 5 µM.

`Cc1ccc(SCC(=O)NCc2ccc3sc(-c4ccnc(N)n4)c(C)c3c2)cc1` [Example 223, Cc1ccc(SCC(═O)NCc2ccc3sc(c(C)c3c2)-c4ccnc(N)n4)cc1]: the results for the half-maximal inhibitory concentration (IC50) in experiment [1] (setting [3]) and in experiment [2] (setting [4]) were > 5 µM and < 5 µM, respectively.

Regarding `Cc1c(-c2ccnc(N)n2)sc2ccc(CNC(=O)C=Cc3ccc(Cl)cc3)cc12` [Example 224, Cc1c(sc2ccc(CNC(═O)C═Cc3ccc(Cl)cc3)cc12)-c4ccnc(N)n4], the half-inhibitory concentration (IC50) in experiment [1] (setting [3]) was > 5 µM; in experiment [2] (setting [4]), < 5 µM.

For `Cc1c(-c2ccnc(N)n2)sc2ccc(CNC(=O)C=Cc3ccccc3Cl)cc12` [Example 225, Cc1c(sc2ccc(CNC(═O)C═Cc3ccccc3Cl)cc12)-c4ccnc(N)n4], the IC50 in experiment [1] (setting [5]) was > 5 µM; in experiment [2] (setting [6]), < 5 µM.

In the case of `Cc1c(-c2ccnc(N)n2)sc2ccc(CNC(=O)c3ccc([N+](=O)[O-])c(O)c3)cc12` [Example 226, Cc1c(sc2ccc(CNC(═O)c3ccc(c(O)c3)[N+]([O−])═O)cc12)-c4ccnc(N)n4], the IC50 in experiment [1] (setting [3]) is > 5 µM; in experiment [2] (setting [4]), < 5 µM.

Consider `Cc1c(-c2ccnc(N)n2)sc2ccc(CNC(=O)c3cc(O)ccc3[N+](=O)[O-])cc12` [Example 227, Cc1c(sc2ccc(CNC(═O)c3cc(O)ccc3[N+]([O−])═O)cc12)-c4ccnc(N)n4], for which the 50% inhibitory concentration (IC50) in experiment [1] (setting [3]) is > 5 µM; in experiment [2] (setting [4]), < 5 µM.
